Measurements from patent US20240294551A1 (AMGEN INC., priority 2022, published 2024).
Counter-ions that a name gives are not always drawn. Like-named read-outs stand apart in the source and are kept apart here.

How the values were obtained:
AsPC-1 cells = assay: AsPC-1 CTG Assay (CellTiter-Glo cell viability); assay type: cell-based, human; details: AsPC-1, 72 h, first value of the cell, read-out: G12D/C/V Cell Proliferation CTG (72 h) AsPC-1
Description: AsPC-1 and SW620 CTG Assay Protocols
AsPC-1 (human pancreatic adenocarcinoma; ATCC CRL-1682) or SW620 (human colon adenocarcinoma; ATCC CCL-227) cells were cultured in RPMI 1640 medium containing 10% fetal bovine serum and 1× penicillin/streptomycin/L-glutamine. Cells were seeded in 384-well plates at a density of 3.33E+04 cells/mL and incubated at 37° C., 5% CO2, overnight. Serially-diluted compound or DMSO was added to the cells, and plates were incubated at 37° C., 5% CO2 for 72 h. Cell viability was measured using a CellTiter-Glo® Luminescent Cell Viability Assay kit (Promega) according to the manufacturer's protocol. The luminescence signal of treated samples was normalized to DMSO control, and data were analyzed using a 4-parameter logistic model to calculate IC50 values.

[1] = target: His-tagged KRAS G12D protein (Homo sapiens (Human), UniProt P01116, G12D); assay: KRAS G12D TR-FRET Assay; assay type: binding; details: read-out: KRAS G12D Binding IC50
Chain of His-tagged KRAS G12D protein (P01116 other isoform, or with tags, fused parts or gaps G12D): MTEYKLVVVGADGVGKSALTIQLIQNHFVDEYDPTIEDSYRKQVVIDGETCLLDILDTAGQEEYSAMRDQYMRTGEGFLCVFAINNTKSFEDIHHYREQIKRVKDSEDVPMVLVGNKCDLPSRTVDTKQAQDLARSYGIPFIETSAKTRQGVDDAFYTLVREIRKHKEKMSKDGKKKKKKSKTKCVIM
Summary of the method: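 His-tagged KRAS G12D (diluted to 20 nM in pH 7.4 HEPES buffer with 10 mM MgCl2 and 10 μM GDP) was preincubated with titrated compound for 30 min at room temperature. Biotinylated KRPep-2d peptide (diluted to 20 nM) was then added for 1 h, and displacement was monitored by TR-FRET.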

[2] = test system: Phosphorylation of ERK1/2 in AsPC-1 cells; assay: Phospho-ERK1/2 MSD Assay; assay type: cell-based, human; details: read-out: 2 h p-ERK (AsPC-1 cells), IC50
Summary of the method: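 Read-out: MSD electrochemiluminescent detection of phosphorylated ERK1/2 in whole-cell lysates, fitted to a 4-parameter logistic curve for IC50. Prior to lysis, AsPC-1 cells (25,000 per well) received a 2 h compound dose-response at 37 °C.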

[3] = target: GDP-bound KRAS protein (aa 1-169), containing both G12D and C118A amino acid substitutions (Homo sapiens (Human), UniProt P01116, C118A/G12D); assay: KRAS G12D Coupled Nucleotide Exchange Assay; assay type: biochemical; details: read-out: KRAS G12D Coupled Exchange IC50
Chain of GDP-bound KRAS protein (aa 1-169), containing both G12D and C118A amino acid substitutions (P01116 other isoform, or with tags, fused parts or gaps G12D/C118A): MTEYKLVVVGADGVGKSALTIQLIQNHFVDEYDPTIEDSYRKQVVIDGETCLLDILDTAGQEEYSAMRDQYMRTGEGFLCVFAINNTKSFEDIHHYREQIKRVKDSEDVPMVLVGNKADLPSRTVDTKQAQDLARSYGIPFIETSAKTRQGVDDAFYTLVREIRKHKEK

IC50 (AsPC-1 cells; Homo sapiens, ASPC1, 72 h) [nM]	IC50 [1] [nM]	IC50 ([2]; Homo sapiens, ASPC1, 2 h) [nM]	IC50 [3] [nM]	IC50 (AsPC-1 cells) [nM]	IC50 ([2]; 2 h) [nM]	Structure (SMILES)
111	3	8	1	–	–	O=C1CCCCc2c(Cl)cc3[nH]ncc3c2-c2ncc3c(nc(OC[C@@]45CCCN4C[C@H](F)C5)nc3c2F)N2CCC[C@H](C2)O1 [Example 36, (17R)-9-Chloro-30-fluoro-24-(((2R,7aS)-2-fluorotetrahydro-1H-pyrrolo[1,2-a]pyrrol-7a(5H)-yl)methoxy)-16-oxa-5,6,21,23,25,29-hexaazahexacyclo[24.3.1.1˜17,21˜.0˜2,10˜.0˜3,7˜.0˜22,27˜]hentriaconta-1(30),2,4,7,9,22,24,26,28-nonaen-15-one bis(2,2,2-trifluoroacetate)]
–	12	–	8	191	16	Cc1cc2[nH]ncc2c2c1CCCOC(=O)CC1CCCN(C1)c1nc(OC[C@@]34CCCN3C[C@H](F)C4)nc3c(F)c-2ncc13 (stereo partly drawn) [Example 39]
90	5	8	3	–	–	Cc1cc2[nH]ncc2c2c1CCCOC(=O)C[C@@H]1CCCN(C1)c1nc(OC[C@@]34CCCN3C[C@H](F)C4)nc3c(F)c-2ncc13 [Example 40]
1640	6	135	3	–	–	Cc1cc2[nH]ncc2c2c1CCCCC(=O)N[C@@H]1CCCCN(C1)c1nc(OC[C@@]34CCCN3C[C@H](F)C4)nc3c(F)c-2ncc13 [Example 54, (26R)-32-fluoro-4-(((2R,7aS)-2-fluorotetrahydro-1H-pyrrolo[1,2-a]pyrrol-7a(5H)-yl)methoxy)-18-methyl-1,3,5,9,14,15,25-heptaazahexacyclo[24.4.1.1~6,10~.0~2,7~.0~11,19~.0~12,16~]dotriaconta-2,4,6,8,10(32),11,13,16,18-nonaen-24-one]
60	4	4	3	–	–	O=C1C[C@H]2CN(CCO2)c2nc(OC[C@@]34CCCN3C[C@H](F)C4)nc3c(F)c(ncc23)-c2c(c(Cl)cc3[nH]ncc23)CCCO1 [Example 79, (17S)-9-chloro-30-fluoro-24-(((2R,7aS)-2-fluorotetrahydro-1H-pyrrolo[1,2-a]pyrrol-7a(5H)-yl)methoxy)-14,18-dioxa-5,6,21,23,25,29-hexaazahexacyclo[24.3.1.1~17,21~.0~2,10~.0~3,7~.0~22,27~]hentriaconta-1(30),2,4,7,9,22,24,26,28-nonaen-15-one]
1000	10	222	6	–	–	Cc1cc2[nH]ncc2c2c1CCCOC(=O)O[C@H]1CN(CC[C@H]1C)c1nc(OC[C@@]34CCCN3C[C@H](F)C4)nc3c(F)c-2ncc13 [Example 94, (17R,18R)-30-fluoro-24-(((2R,7aS)-2-fluorotetrahydro-1H-pyrrolo[1,2-a]pyrrol-7a(5H)-yl)methoxy)-9,18-dimethyl-14,16-dioxa-5,6,21,23,25,29-hexaazahexacyclo[24.3.1.1~17,21~.0~2,10~.0~3,7~.0~22,27~]hentriaconta-1(30),2,4,7,9,22,24,26,28-nonaen-15-one]
1940	14	245	8	–	–	Cc1cc2[nH]ncc2c2c1CCCC(=O)OCCC1CCCN(C1)c1nc(OC[C@@]34CCCN3C[C@H](F)C4)nc3c(F)c-2ncc13 (stereo partly drawn) [Example 105]
270	4	29	1	–	–	Cc1cc2[nH]ncc2c2c1CCCC(=O)OC[C@@H]1CCCN(C1)c1nc(OC[C@@]34CCCN3C[C@H](F)C4)nc3c(F)c-2ncc13 [Example 106]

The next lines start with the compound.

Structure (SMILES)	IC50 (AsPC-1 cells; Homo sapiens, ASPC1, 72 h) [nM]	IC50 [1] [nM]	IC50 ([2]; Homo sapiens, ASPC1, 2 h) [nM]	IC50 [3] [nM]	IC50 (AsPC-1 cells) [nM]	IC50 ([2]; 2 h) [nM]
C[C@@]12CCCN(C1)c1nc(OC[C@@]34CCCN3C[C@H](F)C4)nc3c(F)c(ncc13)-c1cc(O)cc3c1[C@@H](CCCC(=O)N2)CCC3 [Example 27, (15R,21R)-31-Fluoro-8-(((2R,7aS)-2-fluorotetrahydro-1H-pyrrolo[1,2-a]pyrrol-7a(5H)-yl)methoxy)-27-hydroxy-15-methyl-3,7,9,11,16-pentaazahexacyclo[19.7.1.1˜2,6˜.1˜11,15˜.0˜5,10˜.0˜25,29˜]hentriaconta-1(29),2(31),3,5,7,9,25,27-octaen-17-one 2,2,2-trifluoroacetate salt]	661	7	180	5	–	–
Cc1cc2[nH]ncc2c2c1CCCCC(=O)O[C@]1(C)CCCN(C1)c1nc(OC[C@@]34CCCN3C[C@H](F)C4)nc3c(F)c-2ncc13 [Example 32, (17R)-30-fluoro-24-(((2R,7aS)-2-fluorotetrahydro-1H-pyrrolo[1,2-a]pyrrol-7a(5H)-yl)methoxy)-9,17-dimethyl-16-oxa-5,6,21,23,25,29-hexaazahexacyclo[24.3.1.1~17,21~.0~2,10~.0~3,7~.0~22,27~]hentriaconta-1(30),2,4,7,9,22,24,26,28-nonaen-15-one]	422	5	43	3	–	–
Cc1cc2[nH]ncc2c2c1CCCCC(=O)O[C@]1(CF)CCCN(C1)c1nc(OC[C@@]34CCCN3C[C@H](F)C4)nc3c(F)c-2ncc13 [Example 33, (17R)-30-fluoro-17-(fluoromethyl)-24-(((2R,7aS)-2-fluorotetrahydro-1H-pyrrolo[1,2-a]pyrrol-7a(5H)-yl)methoxy)-9-methyl-16-oxa-5,6,21,23,25,29-hexaazahexacyclo[24.3.1.1~17,21~.0~2,10~.0~3,7~.0~22,27~]hentriaconta-1(30),2,4,7,9,22,24,26,28-nonaen-15-one]	809	6	77	4	–	–
O=C1CCCc2c(F)ccc3cc(O)cc(c23)-c2ncc3c(nc(OC[C@@]45CCCN4C[C@H](F)C5)nc3c2F)N2CCC[C@H](C2)O1 [Example 41, (15R)-22,31-Difluoro-8-(((2R,7aS)-2-fluorotetrahydro-1H-pyrrolo[1,2-a]pyrrol-7a(5H)-yl)methoxy)-27-hydroxy-16-oxa-3,7,9,11-tetraazahexacyclo[19.7.1.1˜2,6˜.1˜11,15˜.0˜5,10˜.0˜25,29˜]hentriaconta-1(28),2(31),3,5,7,9,21,23,25(29),26-decaen-17-one 2,2,2-trifluoroacetate salt]	47	3	3	2	–	–
O=C1CCCc2c(F)ccc3cc(O)cc(c23)-c2ncc3c(nc(OC[C@@]45CCCN4C[C@H](F)C5)nc3c2F)N2CCC[C@](CF)(C2)O1 [Example 42]	414	4	38	2	–	–
C[C@@]12CCCN(C1)c1nc(OC[C@@]34CCCN3C[C@H](F)C4)nc3c(F)c(ncc13)-c1cccc3ccc(F)c(c13)CCOC(=O)N2 [Example 77, (15R)-22,31-difluoro-8-(((2R,7aS)-2-fluorotetrahydro-1H-pyrrolo[1,2-a]pyrrol-7a(5H)-yl)methoxy)-15-methyl-18-oxa-3,7,9,11,16-pentaazahexacyclo[19.7.1.1~2,6~.1~11,15~.0~5,10~.0~25,29~]hentriaconta-1(29),2(31),3,5,7,9,21,23,25,27-decaen-17-one]	2140	14	745	7	–	–
O=C1OCCC2CCc3cc4[nH]ncc4c(c32)-c2ncc3c(nc(OC[C@@]45CCCN4C[C@H](F)C5)nc3c2F)N2CCC[C@H](C2)O1 (stereo partly drawn) [Example 125]	410	9	66	5	–	–
CN1C(=O)CC[C@@H]2C[C@@H]2c2c(Cl)cc3[nH]ncc3c2-c2ncc3c(nc(OC[C@@]45CCCN4C[C@H](F)C5)nc3c2F)N2CCC[C@@H]1C2 [Example 128, (11S,13R,18R)-9-Chloro-31-fluoro-25-(((2R,7aS)-2-fluorotetrahydro-1H-pyrrolo[1,2-a]pyrrol-7a(5H)-yl)methoxy)-17-methyl-5,6,17,22,24,26,30-heptaazaheptacyclo[25.3.1.1˜18,22˜.0˜2,10˜.0˜3,7˜.0˜11,13˜.0˜23,28˜]dotriaconta-1(31),2,4,7,9,23,25,27,29-nonaen-16-one bis (2,2,2-trifluoroacetate)]	1260	68	248	46	–	–
Cc1cc2[nH]ncc2c2c1C/C=C/COC[C@@H]1CCCN(C1)c1nc(OC[C@@]34CCCN3C[C@H](F)C4)nc3c(F)c-2ncc13 [Example 130]	230	5	32	2	–	–
Fc1c2ncc3c(nc(OC[C@@]45CCCN4C[C@H](F)C5)nc13)N1CCC[C@@H](COCCCCc3c(Cl)cc4[nH]ncc4c3-2)C1 [Example 138]	5000	4	13	2	–	–
